{"source": "patent US8809010B2", "about": "“Method for prophylactic treatment of alzheimer's disease using inhibitors of glutaminyl cyclase and glutamate cyclases” (Probiodrug AG, priority 2003, dated 2014)", "key": {"human QC [1]": {"target": "T1, human QC (Homo sapiens, UniProt Q16769)", "T1 construct": "The cDNA of the mature QC starting with codon 38 was fused in frame with the plasmid encoded 6× histidine tag; 6xHis; made in house; host or cells: Pichia pastoris X33 (pPICZαB, secreted); also E. coli M15 (pQE-31)", "T1 sequence (Q16769 29-361)": "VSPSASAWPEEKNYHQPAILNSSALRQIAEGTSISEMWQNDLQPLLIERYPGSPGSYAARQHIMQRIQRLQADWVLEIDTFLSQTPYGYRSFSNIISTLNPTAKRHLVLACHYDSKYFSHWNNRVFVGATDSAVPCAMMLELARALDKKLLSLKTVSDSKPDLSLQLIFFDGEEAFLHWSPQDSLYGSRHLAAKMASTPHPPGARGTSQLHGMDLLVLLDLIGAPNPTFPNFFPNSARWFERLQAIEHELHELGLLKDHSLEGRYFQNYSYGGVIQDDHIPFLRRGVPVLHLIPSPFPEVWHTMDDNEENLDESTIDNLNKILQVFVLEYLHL", "test": "QC inhibitor assay (fluorometric, H-Gln-AMC / H-Gln-βNA, pyroglutamyl aminopeptidase coupled)", "assay_type": "biochemical"}, "human QC [2]": {"target": "T1, human QC", "test": "Continuous spectrophotometric QC assay (glutamate dehydrogenase coupled), substrate kinetics;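 as to all read-outs here: initial rates read on a microplate reader at 30 °C, with enzyme activity quantified against an ammonia calibration curve under the same assay conditions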", "assay_type": "biochemical", "details": "for Ki* (mM): for substrate inhibition", "method": "The initial velocities were evaluated and the enzymatic activity was determined from a standard curve of ammonia under assay conditions. All samples were measured at 30° C., using either the [sequence]luor Plus or the Sunrise (both from TECAN) reader for microplates. Kinetic data was evaluated using GraFit software."}, "[3]": {"details": "Human QC, 0.05M Tris-HCl, pH 8.0"}, "[4]": {"details": "Human QC, 0.05M Tris-HCl, pH 8.0, 0.5 M KCl"}, "[5]": {"details": "recombinant human QC, absence of DMSO"}, "[6]": {"details": "recombinant human QC, buffer containing 1% DMSO"}}, "note": "Bridge positions count the residues as written; N and C are the ends. Ends that are not written are not given here. Peptide text beside a SMILES is read from it."}
{"compound": "NCCCn1ccnc1", "note": "[1-aminopropyl-imidazole]", "values": [{"measurement": "inhibition of human QC", "setting": "human QC [1]", "value": "one of the less effective compounds of this group"}]}
{"compound": "O=C(c1ccccc1)n1ccnc1", "note": "[1-benzoylimidazole]", "values": [{"measurement": "inhibition of human QC", "setting": "human QC [1]", "value": "loss of inhibitory quality"}]}
{"compound": "c1ccc(Cn2ccnc2)cc1", "note": "[1-benzylimidazole]", "values": [{"measurement": "inhibition of human QC", "setting": "human QC [1]", "value": "one of the most effective QC inhibitors"}]}
{"compound": "Cn1ccnc1", "note": "[1-methylimidazole]", "values": [{"measurement": "inhibition of human QC", "setting": "human QC [1]", "value": "improved binding to the active site"}]}
{"compound": "C=Cn1ccnc1", "note": "[1-vinylimidazole]", "values": [{"measurement": "inhibition of human QC", "setting": "human QC [1]", "value": "improved binding to the active site"}]}
{"compound": "Cc1nc2ccccc2[nH]1", "note": "[2-methyl-benzimidazole]", "values": [{"measurement": "inhibition of human QC", "setting": "human QC [1]", "value": "the inhibition constant drops about one order of magnitude"}]}
{"compound": "Cn1cncc1CCN", "note": "[3-methyl-4-histamine]", "values": [{"measurement": "inhibition of human QC", "setting": "human QC [1]", "value": "considerable improvement of efficacy"}]}
{"compound": "COc1ccc(NC(=S)NCCCn2ccnc2)cc1", "note": "[Example 11, 1-(3-(1H-imidazol-1-yl)propyl)-3-(4-methoxyphenyl)thiourea]", "values": [{"measurement": "Ki", "setting": "human QC [1]", "value": 700, "unit": "nM"}]}
{"compound": "CCOc1ccc(NC(=S)NCCCn2ccnc2)cc1", "note": "[Example 27, 1-(3-(1H-imidazol-1-yl)propyl)-3-(4-ethoxyphenyl)thiourea]", "values": [{"measurement": "Ki", "setting": "human QC [1]", "value": 890, "unit": "nM"}]}
{"compound": "Cc1cc(=O)oc2cc(NC(=O)[C@@H](N)CCC(N)=O)ccc12", "note": "[H-Gln-AMC]", "values": [{"measurement": "kcat", "setting": "human QC [2]; Human QC", "value": "5.3 ± 0.1", "unit": "s⁻¹"}]}
{"compound": "C[C@H](NC(=O)[C@H](C)NC(=O)[C@@H](N)CCC(N)=O)C(N)=O", "note": "[H-Gln-Ala-Ala-NH2] (H-Gln-Ala-Ala-NH2)", "values": [{"measurement": "kcat", "setting": "human QC [2]; Human QC", "value": "76.3 ± 0.7", "unit": "s⁻¹"}]}
{"compound": "C[C@H](NC(=O)[C@@H](N)CCC(N)=O)C(N)=O", "note": "[H-Gln-Ala-NH2] (H-Gln-Ala-NH2)", "values": [{"measurement": "kcat", "setting": "human QC [2]; Human QC", "value": "40.1 ± 0.9", "unit": "s⁻¹"}]}
{"compound": "C[C@H](NC(=O)[C@@H](N)CCC(N)=O)C(=O)O", "note": "[H-Gln-Ala-OH] (H-Gln-Ala-OH)", "values": [{"measurement": "kcat", "setting": "human QC [2]; Human QC", "value": "57.2 ± 0.4", "unit": "s⁻¹"}, {"measurement": "Ki (mM)", "setting": "human QC [2]; [3]", "value": "n.i."}, {"measurement": "kcat", "setting": "human QC [2]; [3]", "value": "54.4 ± 0.5", "unit": "s⁻¹"}, {"measurement": "Ki (mM)", "setting": "human QC [2]; [4]", "value": "n.i."}, {"measurement": "kcat", "setting": "human QC [2]; [4]", "value": "47.6 ± 0.6", "unit": "s⁻¹"}, {"measurement": "Ki* (mM)", "setting": "human QC [2]; Human QC", "value": "n.i."}]}
{"compound": "NC(=O)CC[C@H](NC(=O)[C@@H](N)CCC(N)=O)C(=O)O", "note": "[H-Gln-Gln-OH] (H-Gln-Gln-OH)", "values": [{"measurement": "kcat", "setting": "human QC [2]; Human QC", "value": "20.7 ± 0.2", "unit": "s⁻¹"}, {"measurement": "Ki* (mM)", "setting": "human QC [2]; Human QC", "value": "n.i."}]}
{"compound": "NC(=O)CC[C@H](N)C(=O)N[C@@H](CCC(=O)O)C(=O)O", "note": "[H-Gln-Glu-OH] (H-Gln-Glu-OH)", "values": [{"measurement": "kcat", "setting": "human QC [2]; Human QC", "value": "24.7 ± 0.2", "unit": "s⁻¹"}, {"measurement": "Ki (mM)", "setting": "human QC [2]; [3]", "value": "n.i."}, {"measurement": "kcat", "setting": "human QC [2]; [3]", "value": "21.4 ± 0.3", "unit": "s⁻¹"}, {"measurement": "Ki (mM)", "setting": "human QC [2]; [4]", "value": "n.i."}, {"measurement": "kcat", "setting": "human QC [2]; [4]", "value": "18.9 ± 0.5", "unit": "s⁻¹"}, {"measurement": "Ki* (mM)", "setting": "human QC [2]; Human QC", "value": "n.i."}]}
{"compound": "CC(C)(C)OC(=O)C(N)CCC(N)=O", "note": "(stereo not drawn) [H-Gln-OtBu]", "values": [{"measurement": "kcat", "setting": "human QC [2]; Human QC", "value": "6.7 ± 0.2", "unit": "s⁻¹"}, {"measurement": "Ki* (mM)", "setting": "human QC [2]; Human QC", "value": "n.i."}]}
{"compound": "NC(=O)CC[C@H](N)C(=O)N[C@@H](Cc1ccc(O)cc1)C(=O)O", "note": "[H-Gln-Tyr-OH] (H-Gln-Tyr-OH)", "values": [{"measurement": "kcat", "setting": "human QC [2]; Human QC", "value": "94 ± 1", "unit": "s⁻¹"}, {"measurement": "Ki* (mM)", "setting": "human QC [2]; Human QC", "value": "n.i."}]}
{"compound": "CC(C)[C@H](NC(=O)[C@@H](N)CCC(N)=O)C(=O)O", "note": "[H-Gln-Val-OH] (H-Gln-Val-OH)", "values": [{"measurement": "kcat", "setting": "human QC [2]; Human QC", "value": "17.2 ± 0.1", "unit": "s⁻¹"}, {"measurement": "Ki* (mM)", "setting": "human QC [2]; Human QC", "value": "n.i."}]}
{"compound": "NC(=O)CC[C@H](N)C(=O)N[C@@H](CCC(=O)O)C(=O)N1CCC[C@H]1C(N)=O", "note": "[[Gln^1]-FPP] (H-Gln-Glu-Pro-NH2)", "values": [{"measurement": "kcat", "setting": "human QC [2]; Human QC", "value": "69.6 ± 0.3", "unit": "s⁻¹"}]}
{"compound": "NC(=O)CC[C@H](N)C(=O)N[C@@H](Cc1c[nH]cn1)C(=O)N1CCC[C@H]1C(N)=O", "note": "[[Gln^1]-TRH] (H-Gln-His-Pro-NH2)", "values": [{"measurement": "kcat", "setting": "human QC [2]; Human QC", "value": "82.8 ± 1.2", "unit": "s⁻¹"}]}
{"compound": "H-Gln-cyclo(Nε-Lys-Arg-Pro-Ala-Gly-Phe) (H-QKRPAGF; lactam 2-C; SMILES C[C@@H]1NC(=O)[C@@H]2CCCN2C(=O)[C@H](CCCNC(=N)N)NC(=O)[C@@H](NC(=O)[C@@H](N)CCC(N)=O)CCCCNC(=O)[C@H](Cc2ccccc2)NC(=O)CNC1=O)", "values": [{"measurement": "kcat", "setting": "human QC [2]; Human QC", "value": "22.8 ± 0.6", "unit": "s⁻¹"}]}
{"compound": "H-QAAAA-NH2 [H-Gln-Ala-Ala-Ala-Ala-NH2]", "values": [{"measurement": "kcat", "setting": "human QC [2]; Human QC", "value": "60.5 ± 0.7", "unit": "s⁻¹"}]}
{"compound": "H-QAASAA-NH2 [H-Gln-Ala-Ala-Ser-Ala-Ala-NH2]", "values": [{"measurement": "kcat", "setting": "human QC [2]; Human QC", "value": "55.3 ± 1.6", "unit": "s⁻¹"}]}
{"compound": "QFRHDSGYE-NH2 [[Gln^3]Aβ3-11a]", "values": [{"measurement": "Km", "setting": "human QC [2]; [5]", "value": "87 ± 3", "unit": "µM"}, {"measurement": "kcat (s^−1)", "setting": "human QC [2]; [5]", "value": "55 ± 1^# s^−1"}, {"measurement": "Km", "setting": "human QC [2]; [6]", "value": "155 ± 4", "unit": "µM"}, {"measurement": "kcat", "setting": "human QC [2]; [6]", "value": "41.4 ± 0.4", "unit": "s⁻¹"}]}
{"compound": "QFRHDSGYEVHHQKLVFFA-NH2 [[Gln^3]Aβ3-21a]", "values": [{"measurement": "kcat", "setting": "human QC [2]; [6]", "value": "62 ± 3", "unit": "s⁻¹"}]}
